This assay has as its system MG63 osteosarcoma cells. Kind of assay: In vitro MG63 osteosarcoma proliferation assay, Test (c). It is filed as cell-based. To be noted: Homo sapiens, MG-63, BrdU, 72 hours, read-out: IC50 versus MG63 osteosarcoma proliferation. The method, then:
This assay determined the ability of a test compound to inhibit the proliferation of MG63 osteosarcoma cells (ATCC CCL 1427):
MG63 cells were seeded at 1.5×10^3 cells per well into 96-well clear tissue culture-treated assay plates (Corning Life Sciences; Catalogue No. 3595) to which had been added 60 μl per well of test medium comprising DMEM without phenol red, 1% charcoal-stripped FCS and 2 mM glutamine and the cells were incubated overnight at 37° C. with 7.5% CO2.
Test compounds were solubilised in DMSO to provide a 10 mM stock solution. Aliquots of the stock solution were diluted with the test medium described above and 20 μl aliquots of each dilution were added to appropriate wells. Serial dilutions were made to give a range of test concentrations. […]
BrdU labelling reagent (Roche Diagnostics Ltd., Lewes, East Sussex, UK; Catalogue No. 647 229) was diluted by a factor of 1:100 in DMEM medium containing 1% charcoal stripped FCS and aliquots (10 μl) were added to each well to give a final concentration of 10 μM. […] Aqueous sulphuric acid (1M; 50 μl) was added to the appropriate wells to stop any further reaction and the absorbance of the wells was measured at 450 nm. The extent of inhibition of cellular proliferation at a range of concentrations of each test compound was determined and an anti-proliferative IC50 value was derived.

For `COc1cc2ncnc(Oc3cnn(CC(=O)Nc4cccc5c4OCO5)c3)c2cc1OC` [Example 2, N-(2,3-methylenedioxyphenyl)-2-[4-(6,7-dimethoxyquinazolin-4-yloxy)pyrazol-1-yl]acetamide], the IC50 is ~40 nM.
